Measurements as given in patent US20060183794A1, “Drug composition containing nf-kb inhibitor” (priority 2002, published 2006).

Tests used:
Type in all cases: cell-based
[1] = test system: Hodgkin's lymphoma cell lines KMH-2 and L-540; assay: MTT assay, proliferation of Hodgkin's lymphoma cell lines
Procedure: Cells from the ATL cell lines (MT-1 and TL-Om1) and a control cell line (K562) were plated in 96-well plates at 1×10^5 cells/well and DHM2EQ was added at the desired final concentrations (2, 5, and 10 μg/ml). Cells to which the solvent DMSO had been added in equal volume (0 μg/ml) were used as […] incubation for 72 hours, cell viability was judged by the MTT assay. Relative MTT values were obtained as the ratio of the MMT values of DHM2EQ-treated cells to those of DHM2EQ-untreated cells, i.e., (MTT values of DHM2EQ-treated cells/MTT values of DHM2EQ-untreated cells)×100(%).
DHM2EQ was added to the ATL cell lines (MT-1 and TL-Om1) and a control cell line (K562) at a final concentration of 10 μg/ml and the cells were incubated for 12, 24, 48, and 72 hours. The proliferation-inhibitory effect was examined by the MTT assay. Cells to which the solvent DMSO had been added in equal volume were used as controls. Relative MTT values were obtained in the same manner as the aforementioned (1).
Time-course analysis and concentration dependence analysis of the inhibitory effect of DHM2EQ on proliferation of Hodgkin's lymphoma cells were performed in the same manner as in Example 2. As Hodgkin's lymphoma cells, the Hodgkin's lymphoma cell lines KMH-2 and L-540 were used.

NF-κB [2] = target: T1, NF-κB (Homo sapiens, UniProt P19838+Q04206); assay: Gel shift assay of constitutive NF-κB activation in ATL cell lines; parameters: endogenous in cells; conditions: MT-1 and TL-Om1; 10 μg/ml DHM2EQ, 12 hours
Procedure: (§1) The ATL cell lines (MT-1 and TL-Om1) and the control cell lines (K562 and Jurkat+TNF), 2×10^6 cells each, were treated with 10 μg/ml DHM2EQ for 12 hours, and nuclear extract was prepared from each cell line. Likewise, nuclear extract was prepared also from the cell lines not treated with DHM2EQ. MT-1 and TL-Om1 are the cell lines transformed with HTLV-1; NF-κB is activated in these cell lines. K562 (myelocytic leukemia cell line) is a cell line in which constitutive NF-κB is not confirmed (a negative control), and Jurkat+TNF is a […] consensus oligomers (Promega) were end-labeled with [γ-^32P]-ATP and polynucleotide kinase (PNK) to prepare ^32P-labeled NF-κB probes.
(§2) The equivalent of 2 μg of nuclear extract protein was mixed with NF-κB probes (the equivalent of 10,000 cpm) in a volume of 20 μl and reacted at room temperature for 30 min. The solution after the reaction was subjected to 7.5% polyacrylamide gel electrophoresis. The gel was then dried and exposed to an X-ray film.
Target sequence in this assay (Q04206 whole entry): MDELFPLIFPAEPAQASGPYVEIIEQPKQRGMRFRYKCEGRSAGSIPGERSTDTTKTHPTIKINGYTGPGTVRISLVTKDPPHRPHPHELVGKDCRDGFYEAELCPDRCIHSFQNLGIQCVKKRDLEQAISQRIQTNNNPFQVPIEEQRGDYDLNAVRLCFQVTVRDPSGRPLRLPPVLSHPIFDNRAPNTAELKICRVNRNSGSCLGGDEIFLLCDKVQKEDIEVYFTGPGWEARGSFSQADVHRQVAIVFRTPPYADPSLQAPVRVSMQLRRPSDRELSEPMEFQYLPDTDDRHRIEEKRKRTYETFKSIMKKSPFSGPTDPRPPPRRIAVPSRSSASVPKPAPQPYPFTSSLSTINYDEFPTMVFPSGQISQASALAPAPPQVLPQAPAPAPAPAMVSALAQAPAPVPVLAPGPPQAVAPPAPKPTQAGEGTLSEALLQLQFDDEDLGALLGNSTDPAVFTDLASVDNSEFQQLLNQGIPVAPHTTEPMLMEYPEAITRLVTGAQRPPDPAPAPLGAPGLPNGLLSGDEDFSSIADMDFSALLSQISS
Target sequence in this assay (P19838 1-433 limits assumed): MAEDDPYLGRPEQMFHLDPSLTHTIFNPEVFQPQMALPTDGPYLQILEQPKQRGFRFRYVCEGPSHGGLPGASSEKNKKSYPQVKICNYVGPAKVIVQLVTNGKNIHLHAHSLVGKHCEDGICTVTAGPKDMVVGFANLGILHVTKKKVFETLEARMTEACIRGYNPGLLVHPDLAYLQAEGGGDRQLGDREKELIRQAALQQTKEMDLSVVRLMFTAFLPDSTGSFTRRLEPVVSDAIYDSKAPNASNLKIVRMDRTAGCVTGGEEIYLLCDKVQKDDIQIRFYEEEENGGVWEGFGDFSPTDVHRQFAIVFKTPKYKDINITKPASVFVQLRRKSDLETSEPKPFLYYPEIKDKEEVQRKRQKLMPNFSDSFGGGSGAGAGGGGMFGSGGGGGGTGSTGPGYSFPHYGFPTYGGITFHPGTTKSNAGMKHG

NF-κB [3] = target: T1, NF-κB; assay: Reporter gene (luciferase) assay of NF-κB transcriptional activity in ATL cell lines; parameters: endogenous in cells; conditions: MT-1 and TL-Om1; 5 μg/ml DHM2EQ; remaining activity vs untreated
Procedure: To examine the transcriptional activity of NF-κB, by using a luciferase construct (6 kB-Luc plasmid), containing six tandem copies of the NF-κB binding sequence, driven with an artificial promoter as a reporter, this plasmid DNA was transiently introduced into the ATL cell lines (MT-1 and TL-Om1) as well as into the control cell line (K562) (transfected on a scale of 2×10^5 cells/transfection using DMRIE-C (Invitrogen)). After 12 hours, treatment with 5 μg/ml DHM2EQ was started. Cells were recovered after 48 hours and the transcriptional activity of NF-κB was evaluated as the enzyme activity of the luciferase. The cell lines not treated with DHM2EQ were also evaluated in the same manner. All experiments were performed three times to obtain average values as well as standard deviations.
Target sequence in this assay (Q04206 whole entry): as the sequence (Q04206 whole entry) above
Target sequence in this assay (P19838 1-433 limits assumed): as the sequence (P19838 1-433 limits assumed) above

NF-κB [4] = target: T1, NF-κB; assay: Gel shift assay of constitutive NF-κB activation in Hodgkin's lymphoma cell lines; parameters: endogenous in cells; host or cells: HL cell lines KMH2, L428, L540, HDLM2 (A30: KMH2 treated with antitumor agents)
Procedure: as §1, §2
Target sequence in this assay (P19838 1-433 limits assumed): as above
Target sequence in this assay (Q04206 whole entry): as the sequence (Q04206 whole entry) above
The HL cell lines, KMH2, L428, L540, and HDLM2, and the control cell line K562 (2×10^6 cells each) were treated with 10 μg/ml DHMEQ for 12 hours, and nuclear extract was prepared from each cell line. The gel shift assay was performed in the same method as in Example 4 (1) and the inhibitory effect on NF-κB was examined. […] Cell line K562 (myelocytic leukemia cell line) is a cell line in which constitutive activation of NF-κB is not observed, and thus used as the negative control. On the other hand, the TNF-treated Jurkat (Jurkat+TNF) was used as the positive control.
Next, the HL cell lines KMH2 and L540 were treated with 10 μg/ml DHMEQ and nuclear extract was prepared from each cell line. The gel shift assay was performed in the same method as in Example 4 (1) and the time-course inhibitory effect on NF-κB was examined.
Thus, investigation was performed to determine whether these signals have NF-κB-specific subunits of DHMEQ resistance. Further, the HL cell lines, KMH2, L428L-540, and HDLM2 were treated with 5 μg/ml DHMEQ for 12 hours, and the remaining component of NF-κB was supershifted with antibodies against p50, p65, and c-Rel according to the same method as described in Example 1.

SMILES: O=C(NC1=CC(=O)C2OC2C1O)c1ccccc1O (centres unmarked) [DHMEQ, 5,6-epoxy-4-hydroxy-3-salicyloylamino-2-cyclohexenone]
- cell proliferation, concentration dependence [1]: inhibited in proportion to the DHM2EQ concentrations added
- cell proliferation, time course [1]: inhibited in proportion to the DHM2EQ treatment time
- signal of NF-κB (gel shift) (NF-κB [2]): almost lost
- luciferase activity suppressed to (NF-κB transcriptional activity) (NF-κB [3]): about 50%
- signals by NF-κB (gel shift) (NF-κB [4]; KMH2, L428, L540, HDLM2, 10 μg/ml, 12 hours): almost lost
- persistence of inhibition of NF-κB activation (NF-κB [4]; KMH2 and L540, 10 μg/ml): sustained even after a lapse of 16 hours
- activation of NF-κB, time course (gel shift) (NF-κB [4]; KMH2 and L540, 10 μg/ml, 1 hour after treatment): almost inhibited
- remaining NF-κB signals after DHMEQ treatment (NF-κB [4]; L428 and KMH2): weak signals remain
